These molecules were tested against T1, K-Ras G12S (Homo sapiens, UniProt P01116, G12S) (assay: HTRF assay of the K-Ras / SOS1 interaction). Details: IC50 (against K-Ras G12D) to IC50 (against K-Ras G12S).
T1 construct: made in house; host or cells: E. coli (e.g., BL21 (DE3))
Type: biochemical
How it was run: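 GST-K-Ras G12S with anti-GST-Eu donor and His-hSOS1 with anti-6His-XL665 acceptor in ~5 mM HEPES pH 7.4, ~150 mM NaCl, 1 mM DTT, 0.05% BSA, 0.0025% Igepal. Read after ~10 min or longer; IC50 from 665/620 nm ratio, duplicates at 10 µM down to 0.01 µM.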

T1 sequence (P01116 1-188 isoform P01116-2 G12S): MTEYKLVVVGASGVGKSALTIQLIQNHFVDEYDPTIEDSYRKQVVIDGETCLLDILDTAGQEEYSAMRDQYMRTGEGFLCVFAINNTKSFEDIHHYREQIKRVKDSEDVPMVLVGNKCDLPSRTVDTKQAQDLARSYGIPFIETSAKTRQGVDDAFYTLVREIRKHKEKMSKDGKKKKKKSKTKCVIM

| SMILES | Ratio of IC50 KRAS G12D vs. IC50 KRAS G12S |
| --- | --- |
| N#Cc1c(N)sc2c(F)ccc(-c3c(Cl)cc4c(N5CC6(CCCCN(C(=O)n7cncn7)C6)C5)nc(OC[C@@]56CCCN5C[C@H](F)C6)nc4c3F)c12 [Compound A285, 4-(4-(6-(1H-1,2,4-triazole-1-carbonyl)-2,6-diazaspiro[3.6]decan-2-yl)-6-chloro-8-fluoro-2-(((2R,7aS)-2-fluorotetrahydro-1H-pyrrolizin-7a(5H)-yl)methoxy)quinazolin-7-yl)-2-amino-7-fluorobenzo[b]thiophene-3-carbonitrile] | A (A: indicates that the ratio of IC50 against KrasG12D vs. IC50 against KrasG12S is 1-fold or greater) |
| Cc1ncn(C(=O)N2CC3(CCCN(c4nc(OC[C@@]56CCCN5C[C@H](F)C6)nc5c(F)c(-c6ccc(F)c7sc(N)c(C#N)c67)c(Cl)cc45)C3)C2)n1 [Compound A102, 2-amino-4-(6-chloro-8-fluoro-2-(((2R,7aS)-2-fluorotetrahydro-1H-pyrrolizin-7 a(5H)-yl)methoxy)-4-(2-(3-methyl-1H-1,2,4-triazole-1-carbonyl)-2,6-diazaspiro[3.5]nonan-6-yl)quinazolin-7-yl)-7-fluorobenzo[b]thiophene-3-carbonitrile] | A (A: indicates that the ratio of IC50 against KrasG12D vs. IC50 against KrasG12S is 1-fold or greater) |
| CN1CCC[C@H]1COc1nc(N2CCOC3(CN(C(=O)n4cncn4)C3)C2)c2cc(Cl)c(-c3ccc(F)c4sc(N)c(C#N)c34)c(F)c2n1 [Compound A137, 4-(4-(2-(1H-1,2,4-triazole-1-carbonyl)-5-oxa-2,8-diazaspiro[3.5]nonan-8-yl)-6-chloro-8-fluoro-2-(((S)-1-methylpyrrolidin-2-yl)methoxy)quinazolin-7-yl)-2-amino-7-fluorobenzo[b]thiophene-3-carbonitrile] | A (A: indicates that the ratio of IC50 against KrasG12D vs. IC50 against KrasG12S is 1-fold or greater) |
| N#Cc1c(N)sc2c(F)ccc(-c3c(Cl)cc4c(N5CCOC6CN(C(=O)n7cncn7)CC65)nc(OC[C@@]56CCCN5C[C@H](F)C6)nc4c3F)c12 (stereo partly drawn) [Compound A218, 4-(4-(6-(1H-1,2,4-triazole-1-carbonyl)hexahydropyrrolo [3,4-b][1,4]oxazin-4(4aH)-yl)-6-chloro-8-fluoro-2-(((2R,7aS)-2-fluorotetrahydro-1H-pyrrolizin-7a(5H)-yl)methoxy)quinazolin-7-yl)-2-amino-7-fluorobenzo[b]thiophene-3-carbonitrile] | A (A: indicates that the ratio of IC50 against KrasG12D vs. IC50 against KrasG12S is 1-fold or greater) |
| N#Cc1c(N)sc2c(F)ccc(-c3c(Cl)cc4c(N5CCOC6(CN(C(=O)n7ccnn7)C6)C5)nc(OC[C@@]56CCCN5C[C@H](F)C6)nc4c3F)c12 [Compound A195, 4-(4-(2-(1H-1,2,3-triazole-1-carbonyl)-5-oxa-2,8-diazaspiro[3.5]nonan-8-yl)-6-chloro-8-fluoro-2-(((2R,7aS)-2-fluorotetrahydro-1H-pyrrolizin-7a(5H)-yl)methoxy)quinazolin-7-yl)-2-amino-7-fluorobenzo[b]thiophene-3-carbonitrile] | A (A: indicates that the ratio of IC50 against KrasG12D vs. IC50 against KrasG12S is 1-fold or greater) |
| CN(C)C1CN(c2nc(N3CCOC4(CN(C(=O)n5cncn5)C4)C3)c3cc(Cl)c(-c4ccc(F)c5sc(N)c(C#N)c45)c(F)c3n2)C1 [Compound A256, 4-(4-(2-(1H-1,2,4-triazole-1-carbonyl)-5-oxa-2,8-diazaspiro[3.5]nonan-8-yl)-6-chloro-2-(3-(dimethylamino)azetidin-1-yl)-8-fluoroquinazolin-7-yl)-2-amino-7-fluorobenzo[b]thiophene-3-carbonitrile] | A (A: indicates that the ratio of IC50 against KrasG12D vs. IC50 against KrasG12S is 1-fold or greater) |
| Cc1ncn(C(=O)N2CC3(C2)CN(c2nc(OC[C@@]45CCCN4C[C@H](F)C5)nc4c(F)c(-c5ccc(F)c6sc(N)c(C#N)c56)c(Cl)cc24)CCO3)n1 [Compound A148, 2-amino-4-(6-chloro-8-fluoro-2-(((2R,7aS)-2-fluorotetrahydro-1H-pyrrolizin-7 a(5H)-yl)methoxy)-4-(2-(3-methyl-1H-1,2,4-triazole-1-carbonyl)-5-oxa-2,8-diazaspiro[3.5]nonan-8-yl)quinazolin-7-yl)-7-fluorobenzo[b]thiophene-3-carbonitrile] | A (A: indicates that the ratio of IC50 against KrasG12D vs. IC50 against KrasG12S is 1-fold or greater) |
| C#Cc1c(F)ccc2cc(O)cc(-c3ncc4c(N5CCOCC6(CN(C(=O)n7cnc(C)n7)C6)C5)nc(OC[C@@]56CCCN5C[C@H](F)C6)nc4c3F)c12 [Compound A298, (9-(7-(8-ethynyl-7-fluoro-3-hydroxynaphthalen-1-yl)-8-fluoro-2-(((2R,7aS)-2-fluorotetrahydro-1H-pyrrolizin-7a(5H)-yl)methoxy)pyrido[4,3-d]pyrimidin-4-yl)-6-oxa-2,9-diazaspiro[3.6]decan-2-yl)(3-methyl-1H-1,2,4-triazol-1-yl)methanone] | A (A: indicates that the ratio of IC50 against KrasG12D vs. IC50 against KrasG12S is 1-fold or greater) |
| COCCN1CCC(Oc2nc(N3CCCCC4(CN(C(=O)n5cncn5)C4)C3)c3cc(Cl)c(-c4ccc(F)c5sc(N)c(C#N)c45)c(F)c3n2)CC1 [Compound A119, 4-(4-(2-(1H-1,2,4-triazole-1-carbonyl)-2,6-diazaspiro[3.6]decan-6-yl)-6-chloro-8-fluoro-2-((1-(2-methoxyethyl)piperidin-4-yl)oxy)quinazolin-7-yl)-2-amino-7-fluorobenzo[b]thiophene-3-carbonitrile] | A (A: indicates that the ratio of IC50 against KrasG12D vs. IC50 against KrasG12S is 1-fold or greater) |
| N#Cc1nccn1C(=O)N1C2CCC1CN(c1nc(OC[C@@]34CCCN3C[C@H](F)C4)nc3c(F)c(-c4ccc(F)c5sc(N)nc45)c(Cl)cc13)C2 [Compound A170, 1-(3-(7-(2-amino-7-fluorobenzo[d]thiazol-4-yl)-6-chloro-8-fluoro-2-(((2R,7aS)-2-fluorotetrahydro-1H-pyrrolizin-7a(5H)-yl)methoxy)quinazolin-4-yl)-3,8-diazabicyclo[3.2. 1]octane-8-carbonyl)-1H-imidazole-2-carbonitrile] | A (A: indicates that the ratio of IC50 against KrasG12D vs. IC50 against KrasG12S is 1-fold or greater) |
| Nc1nc2c(-c3c(Cl)cc4c(N5CCN(C(=O)n6cncn6)CC5)nc(OC[C@@]56CCCN5C[C@H](F)C6)nc4c3F)ccc(F)c2s1 [Compound A146, (4-(7-(2-amino-7-fluorobenzo[d]thiazol-4-yl)-6-chloro-8-fluoro-2-(((2R,7aS)-2-fluorotetrahydro-1H-pyrrolizin-7a(5H)-yl)methoxy)quinazolin-4-yl)piperazin-1-yl)(1H-1,2,4-triazol-1-yl)methanone] | A (A: indicates that the ratio of IC50 against KrasG12D vs. IC50 against KrasG12S is 1-fold or greater) |
